According to publication PMC11324666, “Two novel in vitro assays to screen chemicals for their capacity to inhibit thyroid hormone transmembrane transporter proteins OATP1C1 and OAT4” (Archives of Toxicology, 2024):

Experiments:
CHO-K1 OATP1C1 cells = settings: for Cytotoxicity IC10: concentration that inhibits cell viability by 10%, CHO-K1 OATP1C1 cells, 30 min exposure
Protocol: Cell viability was assessed through the quantitation of ATP present in cells using the commercially available CellTiter-Glo® luminescent cell viability assay and performed according to the manufacturer’s instruction (Promega, Leiden, the Netherlands). Briefly, cells were seeded as described earlier in opaque-walled clear-bottom 96 well plates. On the day of the experiment, each well was washed with 200 µL phosphate buffered saline (PBS) and exposed to 80 µL of uptake buffer, 10 µL of a tenfold stock of test compound solved in uptake buffer or control and 10 µL of T4 (final concentration 10 nM). 0.1% DMSO was used as a solvent control, while 10% DMSO was used as a positive control. After exposure for the indicated times similar to THTMT TH uptake assay, cells were immediately washed with ice-cold PBS + 0.1%BSA and exposed to 100 µL of the CellTiter-Glo® Reagent. Plates were then shaken on an orbital shaker for 2 min and left to incubate at room temperature for 10 min. Luminescence was measured on a BioTek Cytation 5 microplate reader. […] Each individual experiment was repeated at least twice and contained three technical replicates of each control and concentration tested.
Figure S1. […] Blue dots indicate the plate medians from three or four independent experiments, all control and chemical concentrations were tested in triplicates per plate.

OAT4 = molecular target: T1, OAT4 (Homo sapiens, UniProt Q9NSA0); experiment: MDCK-OAT4 TH uptake assay with 125I-T4 tracer; assay type: cell-based; settings: for T4 uptake inhibition BMC20 (M), [CI]: concentration that inhibits 125I-T4 uptake by 20%, brackets = 95% CI; for T4 uptake inhibition BMC20 (M), [CI] / 125I-T4 uptake compared to the vehicle control (range finding): 10 nM T4, 20 min; for 125I-T4 uptake compared to the vehicle control (range finding): single concentration 10 or 100 µM, below 80% = positive hit
T1 construct: V5 (from pLenti6/V5-DEST); expressed in transfected cells; host or cells: MDCK-1 (lentiviral transduction, blasticidin selection)
T1 sequence (Q9NSA0 1-550): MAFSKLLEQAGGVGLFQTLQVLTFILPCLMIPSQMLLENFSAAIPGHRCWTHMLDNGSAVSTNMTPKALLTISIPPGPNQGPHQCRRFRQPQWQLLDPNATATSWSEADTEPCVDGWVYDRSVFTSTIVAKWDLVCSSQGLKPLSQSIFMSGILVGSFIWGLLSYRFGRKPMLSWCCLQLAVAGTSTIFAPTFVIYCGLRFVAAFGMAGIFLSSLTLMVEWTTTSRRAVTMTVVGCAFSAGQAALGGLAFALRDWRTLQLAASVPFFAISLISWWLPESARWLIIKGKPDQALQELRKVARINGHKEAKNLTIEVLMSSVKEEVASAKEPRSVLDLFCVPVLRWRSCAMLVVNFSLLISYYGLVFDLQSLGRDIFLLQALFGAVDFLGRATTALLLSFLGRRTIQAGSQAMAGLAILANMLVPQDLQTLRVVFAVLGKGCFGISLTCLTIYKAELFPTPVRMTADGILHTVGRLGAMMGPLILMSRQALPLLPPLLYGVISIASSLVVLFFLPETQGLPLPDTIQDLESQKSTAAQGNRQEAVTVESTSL
Protocol: Subsequently OAT4 in pENTR™/D-TOPO® Vector was shuffled into the pLenti6/V5-DEST vector (Thermo Fisher) using Gateway™ LR Clonase™ II Enzyme mix (Thermo Fisher) according to the manufacture’s protocol.
To generate an OAT4 stable cell line, MDCK-1 cells were plated in 12-well plates with full growth medium and transduced with fresh viral supernatants in the absence of antibiotics in medium. After 2 days, MDCK-1 cells transduced with OAT4 (MDCK-OAT4) or empty vector (MDCK-DEST) were selected in full growth medium supplemented with 2 µg/mL blasticidin and further maintained under blasticidin selection.
MDCK-OAT4 and MDCK-DEST cells were cultured in DMEM:F12 (L-glutamine, 15 mM HEPES) (Gibco) supplemented with (100 µg/mL penicillin + 100 µg/mL streptomycin), 10% fetal calf serum (Gibco) and 2 µg/mL blasticidin (Sigma). CHO-K1 OATP1C1 or WT cells were cultured in F12 nutrient mix (Gibco) supplemented with (100 µg/mL penicillin + 100 µg/mL streptomycin), 10% fetal calf serum (Gibco) and […] G418 (Sigma). All cell cultures were incubated at 37 °C with 5% CO2 saturation until 80% confluency. MDCK-OAT4 and MDCK-DEST cells were seeded in 96 wells plate at a density of 4 × 10^5 cells in 100 µL medium per well and incubated for 24 h before the start of the MDCK-OAT4 TH uptake assay. CHO-K1 OATP1C1 and WT cells were seeded in 96 wells plate at a density of 3 × 10^5 cells in 100 µL medium per well 72 h before the CHO-K1 OATP1C1 TH uptake assay. Medium from CHO-K1 OATP1C1 or WT assay plates was changed to serum-free F12 medium containing 5 mM sodium-butyrate 24 h before start of the CHO-K1 OATP1C1 TH uptake assay to increase transfected expression of SV-40 promotor plasmids.
Subsequently 10 µL of a tenfold stock of test compound in uptake buffer (solvent concentration 1% v/v) was added to each well. […] Cells were exposed at 37 °C for 20 min (MDCK-OAT4) or 30 min (CHO-K1 OATP1C1), unless stated differently. After exposure, cells were immediately washed with ice-cold PBS supplemented with 0.1% bovine serum albumin (BSA). Subsequently, cells were lysed in 50 µL of 0.1 M NaOH under continuous shaking at room temperature. After 20 min, cell lysates were manually transferred into separate 5 mL polypropylene tubes. One tube was also prepared with 10 µL of the T4 tracer solution. Radioactivity was measured in a Wizard^2 gamma counter (Perkin Elmer).
For the CHO-K1 OATP1C1 TH uptake assay total of 29 chemicals (Table 1) were selected for the EDC screening based on available literature data. […] The same chemicals were selected for the MDCK-OAT4 TH uptake assay, with the exception of BPF, VRP and TCS. […] The THTMT TH uptake assay was then performed as described earlier. […] A concentration of 100 µM ICG was used as a reference chemical for OATP1C1 and 100 µM LESI for OAT4. At least three independent experiments were performed for each chemical. Each individual experiment contained three technical replicates of each control and concentration tested.
Raw values were normalized to the total amount of radioactivity in the T4 tracer solution. These values were expressed as a percentage of total radioactivity added (or uptake percentage) and used for all further data analysis. Statistically significant differences between the T4 uptake of transfected and wild type cells, in the presence or absence of inhibitor, were determined by two-way ANOVA (α = 5%, two-sided). […] In brief, uptake values were normalized to the median response of the vehicle and positive controls for each plate. […] Statistical analysis were performed using GraphPad Prism version 8 for Windows (GraphPad Software, San Diego, California USA) and SAS 9.3 (SAS Institute, Cary NC).

Structure (SMILES) | Cytotoxicity IC10 (CHO-K1 OATP1C1 cells) [µM] | T4 uptake inhibition BMC20 (M), [CI] (OAT4) | 125I-T4 uptake compared to the vehicle control (range finding) (OAT4) | BMC20 (20% reduction in T4 uptake) (OAT4) [µM] | cytotoxic effects (CHO-K1 OATP1C1 cells; at concentrations of the uptake assay, Figure S1)
O=C(O)C(F)(F)C(F)(F)C(F)(F)C(F)(F)C(F)(F)C(F)(F)C(F)(F)F [Perfluorooctanoic acid] | > 100 | 1.38E−06 [4.27E−07; 4.44E−06] M | – | – | –
O=c1c(O)c(-c2ccc(O)c(O)c2)oc2cc(O)cc(O)c12 [Quercetin] | > 100 | 1.23E−05 [4.77E−06; 3.16E−05] M | – | – | –
O=S(=O)([O-])c1cc(S(=O)(=O)O)ccc1C1=c2cc3c4c(c2Oc2c1cc1c5c2CCCN5CCC1)CCC[N+]=4CCC3 [Sulforhodamine 101, reference compound] | > 10 | – | ≥ 80% | – | –
COc1cc([C@@H]2Oc3c(O)cc([C@H]4Oc5cc(O)cc(O)c5C(=O)[C@@H]4O)cc3[C@H]2CO)ccc1O [Silychristin, reference compound] | > 10 | – | ≥ 80% | – | –
CCCN(CCC)S(=O)(=O)c1ccc(C(=O)O)cc1 [Probenecid, reference compound] | > 100 | 3.65E−05 [2.69E−05; 4.61E−05] M | – | – | –
O=C1OC(c2ccc(O)c(S(=O)(=O)O)c2)(c2ccc(O)c(S(=O)(=O)O)c2)c2c(Br)c(Br)c(Br)c(Br)c21 [Bromosulfophthalein, reference compound] | > 100 | 7.25E−08 [3.85E−08; 1.36E−07] M | below 80% | 0.072 | –
CC(C)(c1cc(Br)c(O)c(Br)c1)c1cc(Br)c(O)c(Br)c1 [Tetrabromobisphenol A, Tetrabromobisphenol-A] | > 0.3 | 6.49E−07 [4.32E−07; 9.74E−07] M | below 80% | – | –
Oc1c(Cl)c(Cl)c(Cl)c(Cl)c1Cl [Pentachlorophenol] | > 18.5 | 2.65E−05 [2.17E−05; 3.23E−05] M | – | – | –
O=S(=O)(O)C(F)(F)C(F)(F)C(F)(F)C(F)(F)C(F)(F)C(F)(F)C(F)(F)C(F)(F)F [Perfluorooctanesulfonic acid] | > 100 | 1.44E−06 [4.08E−07; 5.05E−06] M | below 80% | – | –
Oc1ccc(Cc2ccc(O)cc2)cc1 [Bisphenol F, Bisphenol-F] | > 100 | – | below 80% | – | –
CO[C@H]1/C=C/O[C@@]2(C)Oc3c(C)c(O)c4c(O)c(c(/C=N/N5CCN(C)CC5)c(O)c4c3C2=O)NC(=O)/C(C)=C\C=C\[C@H](C)[C@H](O)[C@@H](C)[C@@H](O)[C@@H](C)[C@H](OC(C)=O)[C@@H]1C [Rifampicin, reference compound] | > 100 | 1.02E−05 [4.85E−06; 2.14E−05] M | – | – | –
CC1(C)C(/C=C/C=C/C=C/C=C2\N(CCCCS(=O)(=O)O)c3ccc4ccccc4c3C2(C)C)=[N+](CCCCS(=O)(=O)[O-])c2ccc3ccccc3c21 [Indocyanine green, reference compound] | > 100 | 1.68E−05 [1.20E−05; 2.33E−05] M | – | – | –
Oc1ccc(C(c2ccc(O)cc2)(C(F)(F)F)C(F)(F)F)cc1 [Bisphenol AF, Bisphenol-AF] | 0.909 | 5.39E−06 [1.65E−06; 1.76E−05] M | – | – | confounded by cytotoxic effects
